The text below walks through data of PMC4672351, “Drug-Drug Interaction Potentials of Tyrosine Kinase Inhibitors via Inhibition of UDP-Glucuronosyltransferases” (Scientific Reports, 2015).

For data set [1] the following is noted: ref [17][40][45] axitinib, [38][39][46] imatinib, [41][42] lapatinib, [43][44] vandetanib, cited from earlier work; for Cmax: clinical oral dose: axitinib 5 mg/12 h, imatinib 400 mg/24 h, lapatinib 1250 mg/24 h, vandetanib 300 mg/24 h; for Absorption Rate Constant (ka) / Fraction absorbed (Fa) / Oral CL / t1/2: clinical.
For data set [2], the target named is T1, UGT1A4 (Homo sapiens, UniProt P22310).
T1 sequence (P22310 29-534): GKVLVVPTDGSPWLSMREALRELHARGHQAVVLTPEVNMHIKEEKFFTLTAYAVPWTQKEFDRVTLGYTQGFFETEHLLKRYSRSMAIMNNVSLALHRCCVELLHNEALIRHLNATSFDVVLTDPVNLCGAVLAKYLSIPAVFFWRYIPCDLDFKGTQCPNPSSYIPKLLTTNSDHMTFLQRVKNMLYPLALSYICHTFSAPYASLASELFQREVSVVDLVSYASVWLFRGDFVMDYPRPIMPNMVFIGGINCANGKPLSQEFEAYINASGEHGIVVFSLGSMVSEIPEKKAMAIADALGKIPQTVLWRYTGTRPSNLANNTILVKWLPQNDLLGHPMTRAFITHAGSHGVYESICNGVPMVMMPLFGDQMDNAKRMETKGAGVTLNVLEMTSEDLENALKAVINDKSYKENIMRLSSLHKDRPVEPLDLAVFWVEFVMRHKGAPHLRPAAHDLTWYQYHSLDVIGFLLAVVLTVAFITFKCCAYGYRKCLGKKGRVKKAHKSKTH
The data set can be described thus: Inhibition of TFP glucuronidation by recombinant UGT1A4. As to conditions: for activity at 30 min, 100 µM: human.

The target of data set [3] is T2, UGT1A1 (Homo sapiens, UniProt P22309).
T2 sequence (P22309 26-533): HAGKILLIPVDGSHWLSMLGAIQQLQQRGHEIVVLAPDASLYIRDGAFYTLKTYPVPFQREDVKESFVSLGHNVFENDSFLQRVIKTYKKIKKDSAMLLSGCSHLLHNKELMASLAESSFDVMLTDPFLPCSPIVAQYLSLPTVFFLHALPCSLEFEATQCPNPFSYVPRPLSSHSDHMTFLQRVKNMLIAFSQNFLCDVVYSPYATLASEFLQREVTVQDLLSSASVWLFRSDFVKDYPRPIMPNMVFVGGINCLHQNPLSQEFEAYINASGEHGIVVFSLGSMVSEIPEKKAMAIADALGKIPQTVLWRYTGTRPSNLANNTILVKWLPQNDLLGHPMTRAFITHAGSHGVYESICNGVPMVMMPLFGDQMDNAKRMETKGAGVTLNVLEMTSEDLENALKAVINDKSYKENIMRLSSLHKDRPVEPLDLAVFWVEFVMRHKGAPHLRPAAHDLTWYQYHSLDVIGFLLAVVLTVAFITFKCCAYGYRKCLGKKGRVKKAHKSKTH
The data set can be described thus: Inhibition of 4-MU glucuronidation by recombinant UGT1A1. The settings on record: for activity at 120 min, 100 µM: human, recombinant UGT1A1, pH 7.4, probe 4-MU.

Data set [4] deals with T3, UGT1A3 (Homo sapiens, UniProt P35503).
T3 sequence (P35503 29-534): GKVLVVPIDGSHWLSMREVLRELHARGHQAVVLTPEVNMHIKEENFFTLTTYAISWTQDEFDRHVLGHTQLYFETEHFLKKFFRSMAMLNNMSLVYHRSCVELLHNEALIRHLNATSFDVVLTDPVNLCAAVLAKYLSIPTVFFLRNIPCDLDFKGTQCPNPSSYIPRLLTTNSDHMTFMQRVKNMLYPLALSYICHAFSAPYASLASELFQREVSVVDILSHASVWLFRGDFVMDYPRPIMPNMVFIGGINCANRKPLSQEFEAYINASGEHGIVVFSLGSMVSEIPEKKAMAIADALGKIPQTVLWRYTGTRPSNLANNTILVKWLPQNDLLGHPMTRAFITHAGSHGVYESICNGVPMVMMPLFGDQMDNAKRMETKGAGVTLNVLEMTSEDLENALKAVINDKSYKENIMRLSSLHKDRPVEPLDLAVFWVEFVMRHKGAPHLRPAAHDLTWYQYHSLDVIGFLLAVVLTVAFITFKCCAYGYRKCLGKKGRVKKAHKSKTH
Description: Inhibition of 4-MU glucuronidation by recombinant UGT1A3. The settings on record: recombinant UGT1A3, pH 7.4, probe 4-MU.

Data set [5] addresses T4, UGT1A7 (Homo sapiens, UniProt Q9HAW7).
T4 sequence (Q9HAW7 26-530): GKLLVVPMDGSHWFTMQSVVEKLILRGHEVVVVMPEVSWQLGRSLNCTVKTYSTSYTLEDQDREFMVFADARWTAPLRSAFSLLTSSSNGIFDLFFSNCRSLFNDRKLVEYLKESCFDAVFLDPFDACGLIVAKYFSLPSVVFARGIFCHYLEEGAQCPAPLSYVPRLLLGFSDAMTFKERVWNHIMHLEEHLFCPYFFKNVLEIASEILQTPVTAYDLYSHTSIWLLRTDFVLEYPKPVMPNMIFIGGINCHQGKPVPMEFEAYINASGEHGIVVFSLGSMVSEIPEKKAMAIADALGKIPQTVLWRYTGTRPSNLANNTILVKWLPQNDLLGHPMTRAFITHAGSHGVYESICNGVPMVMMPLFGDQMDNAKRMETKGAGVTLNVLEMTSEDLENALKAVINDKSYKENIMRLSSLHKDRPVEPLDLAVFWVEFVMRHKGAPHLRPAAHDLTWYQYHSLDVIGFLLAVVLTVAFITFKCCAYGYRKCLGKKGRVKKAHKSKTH
The data set can be described thus: Inhibition of 4-MU glucuronidation by recombinant UGT1A7. As to conditions: for activity at 30 min, 100 µM: human, recombinant UGT1A7, pH 7.4, probe 4-MU.

[6] abbreviates: recombinant UGT1A4, pH 7.4, probe TFP (trifluoperazine).

Entries after “also recorded” stand apart in the source; their conditions may differ.

In the case of `CNC(=O)c1ccccc1Sc1ccc2c(/C=C/c3ccccn3)n[nH]c2c1` [Axitinib, axitinib], in data set [1], the Cmax (commonly the highest concentration seen after dosing) is 0.16 µM, the “Absorption Rate Constant (ka)” value was 0.523 h⁻¹, the “Fraction absorbed (Fa)” value is recorded as 0.88 and the “Oral CL” value is 45 L/h. The t1/2 in data set [1] is 3.2 h. Further, in data set [2], the IC50 (usually the concentration at which inhibition is half-maximal) stood at 14.2 ± 3.2 µM. The activity at 30 min, 100 µM in data set [2] (pH 7.4) amounted to 14.9 ± 1.8%. Moreover, the activity at 120 min, 100 µM in data set [3] was found to be 56.7 ± 3.4%. Besides, the activity at 75 min, 100 µM in data set [4] was 47.8 ± 12.8%. Also, in data set [5], the IC50 was found to be 3.3 ± 0.7 µM and the activity at 30 min, 100 µM was 25 ± 2.5%.

As to `CS(=O)(=O)CCNCc1ccc(-c2ccc3ncnc(Nc4ccc(OCc5cccc(F)c5)c(Cl)c4)c3c2)o1` [Lapatinib, lapatinib], in data set [1], the Cmax was 4.2 µM, the “Absorption Rate Constant (ka)” value was 0.7 h⁻¹, the “Fraction absorbed (Fa)” value is recorded as 0.73 and the “Oral CL” value is recorded as 114 L/h. In addition, in data set [1], the t1/2 is 24 h. Further, in data set [2], the IC50 amounted to 3.8 ± 0.7 µM; the Ki – broadly, the dissociation constant of the complex between target and ligand, obtained from inhibition or displacement – came out at 36.4 ± 5 µM. Further, the “inhibition type, UGT1A4” value in data set [2] (TFP substrate) is reported as “mixed”. Besides, the activity at 30 min, 100 µM in data set [2] (setting [6]) turned out to be 40.7 ± 1.9%. In data set [3] (4-MU substrate), the “inhibition type, UGT1A1” value is reported as “competitive”. In data set [3], the activity at 120 min, 100 µM was determined as 30.8 ± 11%. Besides, the activity at 75 min, 100 µM in data set [4] worked out at 96.5 ± 7.5%. The “inhibition type, UGT1A7” value in data set [5] (4-MU substrate) is “non-competitive; also recorded: noncompetitive”. For the same molecule, in data set [5], the activity at 30 min, 100 µM was 37.7 ± 9.3%.

Turning to `COc1cc2c(Nc3ccc(Br)cc3F)ncnc2cc1OCC1CCN(C)CC1` [Vandetanib, vandetanib], in data set [1], the Cmax was 3.32 µM, the “Absorption Rate Constant (ka)” value is 0.3 h⁻¹, the “Fraction absorbed (Fa)” value is reported as 0.935 and the “Oral CL” value was 13.2 L/h. For the same molecule, in data set [1], the t1/2 is 456 h. Besides, the activity at 30 min, 100 µM in data set [2] (setting [6]) is 62.8%. Further, the activity at 120 min, 100 µM in data set [3] was determined as 48.9 ± 4.9%. In addition, in data set [4], the activity at 75 min, 100 µM was found to be 104 ± 2.1%. Besides, in data set [5], the IC50 is 38.9 ± 4.3 µM and the activity at 30 min, 100 µM turned out to be 22.7 ± 2.7%.
